Data taken from ChEMBL document CHEMBL3044634, “Synthesis and evaluation of antibacterial and antifungal activities of new (Z)-3-bromo-4-(1,3-diaryl-1H-pyrazol-4-yl)but-3-en-2-ones and 4-(3-methyl-1-phenyl-1H-pyrazol-5-yl)-1,3-diaryl-1H-pyrazoles” (2013).
≈ marks a conversion by molar mass, not a printed value. Calls of active or inactive are those of the source. The rule behind the calls is not given here.

How the values were obtained:
Staphylococcus aureus [1] = test: Antibacterial activity against Staphylococcus aureus MTCC 96 at 2 mg/ml after 24 hr by agar well diffusion method; format: functional; details: MTCC 96, 24 h, read-out: DIZ
Aspergillus flavus = test: Growth inhibition of Aspergillus flavus at 4 mg/ml after 7 days by poisoned-food technique; format: functional; details: 168 h, read-out: GI
Bacillus subtilis [2] = test: Antibacterial activity against Bacillus subtilis MTCC 121 at 2 mg/ml after 24 hr by agar well diffusion method; format: functional; details: MTCC 121, 24 h, read-out: DIZ
Escherichia coli = test: Antibacterial activity against Escherichia coli MTCC 1652 at 2 mg/ml after 24 hr by agar well diffusion method; format: functional, organism-based
Staphylococcus aureus [3] = test: Antibacterial activity against Staphylococcus aureus MTCC 96 after 24 hr by macrodilution tube method; format: functional; details: MTCC 96, 24 h
Bacillus subtilis [4] = test: Antibacterial activity against Bacillus subtilis MTCC 121 after 24 hr by macrodilution tube method; format: functional; details: MTCC 121, 24 h
Aspergillus niger = test: Growth inhibition of Aspergillus niger at 4 mg/ml after 7 days by poisoned-food technique; format: functional; details: 168 h, read-out: GI
Pseudomonas aeruginosa = test: microbe, parasite or virus in culture; details: MTCC 741, 24 h, read-out: DIZ
Description: Antibacterial activity against Pseudomonas aeruginosa MTCC 741 at 2 mg/ml after 24 hr by agar well diffusion method

| Structure (SMILES) | zone of inhibition at 2000 µg/mL (Staphylococcus aureus [1]) | inhibition of growth at 4000 µg/mL (Aspergillus flavus) | zone of inhibition at 2000 µg/mL (Bacillus subtilis [2]) | Activity (Escherichia coli) | MIC (Staphylococcus aureus [3]) | MIC (Bacillus subtilis [4]) | inhibition of growth at 4000 µg/mL (Aspergillus niger) | zone of inhibition at 2000 µg/mL (Pseudomonas aeruginosa) |
| --- | --- | --- | --- | --- | --- | --- | --- | --- |
| CC(=O)/C(Br)=C/c1cn(-c2ccccc2)nc1-c1ccc(C)cc1 | 18.3 mm | 52.2% | 17 mm | inactive | 64 µg/mL (≈ 168 µM) | 128 µg/mL (≈ 336 µM) | 51.1% |  |
| Cc1ccc(-c2nn(-c3ccccc3)cc2-c2cc(C)nn2-c2ccccc2)cc1 | 14.6 mm | 45.5% | 16.3 mm | inactive | 256 µg/mL (≈ 656 µM) | 128 µg/mL (≈ 328 µM) | 44.4% |  |
| CC(=O)/C(Br)=C/c1cn(-c2ccccc2)nc1-c1ccc(Cl)cc1 | 14.6 mm | 45.5% | 16.3 mm | inactive | 256 µg/mL (≈ 637 µM) | 128 µg/mL (≈ 319 µM) | 50% |  |
| CC(=O)/C(Br)=C/c1cn(-c2ccccc2)nc1-c1ccc(Br)cc1 | 21.3 mm | 58.8% | 19.3 mm | inactive | 32 µg/mL (≈ 71.7 µM) | 64 µg/mL (≈ 143 µM) | 55.5% |  |
| Cc1cc(-c2cn(-c3ccccc3)nc2-c2ccc(Br)cc2)n(-c2ccccc2)n1 | 19.3 mm | 52.2% | 20.6 mm | inactive | 64 µg/mL (≈ 141 µM) | 32 µg/mL (≈ 70.3 µM) | 55.5% |  |
| CC(=O)/C(Br)=C/c1cn(-c2ccccc2)nc1-c1ccc([N+](=O)[O-])cc1 | 16 mm | 52.2% | 17.6 mm | inactive | 128 µg/mL (≈ 310 µM) | 128 µg/mL (≈ 310 µM) | 48.8% |  |
| Cc1cc(-c2cn(-c3ccccc3)nc2-c2ccc(F)cc2)n(-c2ccccc2)n1 | 15 mm | 44.4% | 16.3 mm | inactive | 128 µg/mL (≈ 325 µM) | 128 µg/mL (≈ 325 µM) | 43.3% |  |
| Cc1cc(-c2cn(-c3ccc([N+](=O)[O-])cc3)nc2-c2ccccc2)n(-c2ccccc2)n1 | 13.6 mm | 45.5% | 14.3 mm | inactive | 256 µg/mL (≈ 607 µM) | 256 µg/mL (≈ 607 µM) | 43.3% |  |
| COc1ccc(-c2nn(-c3ccc([N+](=O)[O-])cc3)cc2-c2cc(C)nn2-c2ccccc2)cc1 | 15.3 mm | 44.4% | 14 mm | inactive | 256 µg/mL (≈ 567 µM) | 128 µg/mL (≈ 284 µM) | 46.6% |  |
| COc1ccc(-c2nn(-c3ccc([N+](=O)[O-])cc3)cc2/C=C(\Br)C(C)=O)cc1 | 15.6 mm | 50% | 16 mm | inactive | 128 µg/mL (≈ 289 µM) | 128 µg/mL (≈ 289 µM) | 45.5% |  |
| CC(=O)/C(Br)=C/c1cn(-c2ccc([N+](=O)[O-])cc2)nc1-c1ccccc1 | 19.3 mm | 53.3% | 17.3 mm | inactive | 64 µg/mL (≈ 155 µM) | 128 µg/mL (≈ 310 µM) | 51.1% |  |
| O=C(O)c1cn(C2CC2)c2cc(N3CCNCC3)c(F)cc2c1=O [CIPROFLOXACIN] | 26 mm |  | 24 mm |  | 5 µg/mL (≈ 15.1 µM) | 5 µg/mL (≈ 15.1 µM) |  | 25.3 mm |
| COc1ccc(-c2nn(-c3ccccc3)cc2/C=C(\Br)C(C)=O)cc1 | 15.6 mm | 44.4% | 16.3 mm | inactive | 128 µg/mL (≈ 322 µM) | 128 µg/mL (≈ 322 µM) | 45.5% |  |
| CC(=O)/C(Br)=C/c1cn(-c2ccccc2)nc1-c1ccc(F)cc1 | 20.6 mm | 55.5% | 21.6 mm | inactive | 32 µg/mL (≈ 83.1 µM) | 32 µg/mL (≈ 83.1 µM) | 53.3% |  |
| Cc1cc(-c2cn(-c3ccccc3)nc2-c2ccccc2)n(-c2ccccc2)n1 | 16.3 mm | 46.6% | 15.6 mm | inactive | 128 µg/mL (≈ 340 µM) | 128 µg/mL (≈ 340 µM) | 44.4% |  |
| CC(=O)/C(Br)=C/c1cn(-c2ccccc2)nc1-c1ccccc1 | 15.3 mm | 48.8% | 16.6 mm | inactive | 128 µg/mL (≈ 349 µM) | 128 µg/mL (≈ 349 µM) | 51.1% |  |
| CC(=O)/C(Br)=C/c1cn(-c2ccc([N+](=O)[O-])cc2)nc1-c1ccc(F)cc1 | 16.6 mm | 50% | 17.3 mm | inactive | 128 µg/mL (≈ 298 µM) | 128 µg/mL (≈ 298 µM) | 48.8% |  |
| Cc1cc(-c2cn(-c3ccccc3)nc2-c2ccc([N+](=O)[O-])cc2)n(-c2ccccc2)n1 | 17.6 mm | 53.3% | 18.6 mm | inactive | 64 µg/mL (≈ 152 µM) | 64 µg/mL (≈ 152 µM) | 51.1% |  |
| COc1ccc(-c2nn(-c3ccccc3)cc2-c2cc(C)nn2-c2ccccc2)cc1 | 15.3 mm | 44.4% | 14 mm | inactive | 128 µg/mL (≈ 315 µM) | 256 µg/mL (≈ 630 µM) | 41.1% |  |
| Cc1cc(-c2cn(-c3ccccc3)nc2-c2ccc(Cl)cc2)n(-c2ccccc2)n1 | 14.3 mm | 51.1% | 16.3 mm | inactive | 256 µg/mL (≈ 623 µM) | 128 µg/mL (≈ 312 µM) | 48.8% |  |
| Cc1cc(-c2cn(-c3ccc([N+](=O)[O-])cc3)nc2-c2ccc(F)cc2)n(-c2ccccc2)n1 | 13.6 mm | 47.7% | 15.6 mm | inactive | 256 µg/mL (≈ 583 µM) | 128 µg/mL (≈ 291 µM) | 44.4% |  |
| OC(Cn1cncn1)(Cn1cncn1)c1ccc(F)cc1F [FLUCONAZOLE] |  | 77.7% |  |  |  |  | 81.1% |  |
